Measured values from the supplement of paper PMC10307832.

What was measured:
Assay in all cases: relative viability (nuclei count vs DMSO), 5 days (fraction); higher = more cells survive
[1] = compound: C1=CC(=CC=C1C2=CC(=C(S2)NC(=O)N)C(=O)N)F [TPCA-1] + Cc1nc(Nc2ncc(C(=O)Nc3c(C)cccc3Cl)s2)cc(N2CCN(CCO)CC2)n1 [Dasatinib] (partner 0.075 µM)
In short: (§1)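 Lung cancer cell lines were seeded in 1536-well plates and dosed by pin tool the next day, with either a single drug or a fixed anchor-drug dose combined with five library-drug doses (not always all listed) spaced in √10 steps. Five days later, one step fixed the cells and stained their nuclei (final 0.05% Triton X-100, 1% formaldehyde, 1 ug/ml Hoechst), and nuclei were counted on 4× images. Relative viability is the nuclei count in treated wells divided by the count in vehicle wells, and each value is the median of duplicate plates.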

[2] = compound: C1=CC(=CC=C1C2=CC(=C(S2)NC(=O)N)C(=O)N)F [TPCA-1] + CC(=O)Nc1cccc(-n2c(=O)n(C3CC3)c(=O)c3c(Nc4ccc(I)cc4F)n(C)c(=O)c(C)c32)c1 [Trametinib] (partner 0.02 µM)
In short: as §1

[3] = compound: C1=CC(=CC=C1C2=CC(=C(S2)NC(=O)N)C(=O)N)F [TPCA-1] + CS(=O)(=O)CCNCc1ccc(-c2ccc3ncnc(Nc4ccc(OCc5cccc(F)c5)c(Cl)c4)c3c2)o1 [Lapatinib] (partner 2 µM)
In short: as §1

[4] = compound: C1/C(=C\C2=CC=CS2)/C(=O)/C(=C/C3=CC=CS3)/C1 + CS(=O)(=O)CCNCc1ccc(-c2ccc3ncnc(Nc4ccc(OCc5cccc(F)c5)c(Cl)c4)c3c2)o1 [Lapatinib] (partner 2 µM)
In short: as §1

Cell Line	relative viability ([1]; first compound 0.04 µM)	relative viability ([1]; first compound 0.1265 µM)	relative viability ([1]; first compound 0.4 µM)	relative viability ([1]; first compound 1.265 µM)	relative viability ([1]; first compound 4 µM)	relative viability ([2]; first compound 0.4 µM)	relative viability ([2]; first compound 1.265 µM)	relative viability ([2]; first compound 4 µM)	relative viability ([3]; first compound 0.04 µM)	relative viability ([3]; first compound 0.1265 µM)	relative viability ([3]; first compound 0.4 µM)	relative viability ([3]; first compound 1.265 µM)	relative viability ([3]; first compound 4 µM)	relative viability ([4]; first compound 0.2 µM)	relative viability ([4]; first compound 0.6325 µM)	relative viability ([4]; first compound 2 µM)	relative viability ([4]; first compound 6.325 µM)	relative viability ([4]; first compound 20 µM)	relative viability ([2]; first compound 0.04 µM)	relative viability ([2]; first compound 0.1265 µM)
SW 900	0.768	0.526	0.685	0.307	0.583	0.775	0.909	0.764	–	–	–	–	–	–	–	–	–	–	–	–
NCI-H1944	0.251	0.207	0.217	0.198	0.151	0.426	0.355	0.294	0.999	0.68	0.838	0.7	0.682	0.735	0.695	0.864	0.782	0.748	0.423	0.373
NCI-H727	0.425	0.364	0.48	0.361	0.37	0.442	0.421	0.357	0.83	0.772	0.694	0.815	0.738	0.735	0.877	1.02	0.701	0.752	0.393	0.361
NCI-H1650	0.361	–	0.336	0.269	0.269	0.602	0.565	0.655	0.945	0.713	0.921	0.791	0.219	0.654	0.735	0.961	0.748	0.803	0.662	0.545
HCC-827	0.299	0.199	0.391	0.293	0.155	0.527	0.596	0.421	0.193	0.198	0.188	0.166	0.132	0.21	0.177	0.205	0.191	0.204	0.545	0.545
HCC-366	0.729	0.55	0.664	0.539	0.233	0.331	0.312	0.24	1.06	1.01	1.02	1.02	0.217	1.14	0.926	1.07	0.84	0.931	–	0.323
HARA	0.298	0.289	0.298	0.257	0.231	0.7	0.63	0.677	0.744	0.988	0.791	0.722	0.691	0.768	0.657	0.874	0.321	0.818	0.8	1.11
